In patent publication US10329294B2, “Pyrazolopyrimidine inhibitors of IRAK4 activity” (MERCK SHARP & DOHME CORP., priority 2015, dated 2019):
Where a name gives a salt, the structure may show the parent alone. Read-outs that look alike come from different tables or passages of the source.

Molecular target: IRAK4 (Homo sapiens (Human), UniProt Q9NWZ3)
Test: IRAK4 Kinase Assay
Assay type: biochemical
Settings: IMAP fluorescence polarization, 0.5 nM GST tagged IRAK4, 100 μM ATP, 30 minutes at 25° C.

Sequence of IRAK4 (Q9NWZ3 whole entry): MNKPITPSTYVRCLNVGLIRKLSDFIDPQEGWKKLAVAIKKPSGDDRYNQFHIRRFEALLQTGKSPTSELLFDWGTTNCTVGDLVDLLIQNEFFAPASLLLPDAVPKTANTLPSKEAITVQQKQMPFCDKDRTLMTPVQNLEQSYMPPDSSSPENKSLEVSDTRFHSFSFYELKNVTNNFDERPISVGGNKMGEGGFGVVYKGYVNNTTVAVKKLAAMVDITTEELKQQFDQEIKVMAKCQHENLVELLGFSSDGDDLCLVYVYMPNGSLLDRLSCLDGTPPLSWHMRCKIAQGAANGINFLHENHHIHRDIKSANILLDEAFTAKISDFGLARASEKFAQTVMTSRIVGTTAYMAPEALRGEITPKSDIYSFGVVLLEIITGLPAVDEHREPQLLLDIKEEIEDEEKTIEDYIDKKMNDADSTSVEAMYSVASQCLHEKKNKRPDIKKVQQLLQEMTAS

| SMILES | IC50 (read-out: IRAK4 IC50) | IC50 (IRAK4 IC50 (nM)) |
| --- | --- | --- |
| O=C(Nc1cscc1Cl)c1cnn2ccc(N3C[C@@H]4CC[C@H]3CN4)nc12 (single isomer, unassigned) [Example 169, N-(4-chlorothiophen-3-yl)-5-[(1S,4S)- or (1R,4R)-2,5-diazabicyclo[2.2.2]oct-2-yl]pyrazolo[1,5-a]pyrimidine-3-carboxamide trifluoroacetate] | 150 nM | – |
| O=C(Nc1cscc1Cl)c1cnn2ccc(N3C[C@H]4CC[C@@H]3CN4)nc12 (single isomer, unassigned) [Example 171, N-(4-chlorothiophen-3-yl)-5-[(1S,4S)- or (1R,4R)-2,5-diazabicyclo[2.2.2]oct-2-yl]pyrazolo[1,5-a]pyrimidine-3-carboxamide trifluoroacetate] | 383 nM | – |
| Cn1cc(NC(=O)c2cnn3ccc(N4CC[C@@H](F)[C@@H](N)C4)nc23)c(C(F)F)n1 (single isomer, unassigned) [Example 178, 5-[(3S,4R)- or (3R,4S)-3-amino-4-fluoropiperidin-1-yl]-N-[3-(difluoromethyl)-1-methyl-1H-pyrazol-4-yl]pyrazolo[1,5-a]pyrimidine-3-carboxamide trifluoroacetate] | 4 nM | – |
| Cn1cc(NC(=O)c2cnn3ccc(N4CC[C@H](F)[C@H](N)C4)nc23)c(C(F)F)n1 (single isomer, unassigned) [Example 179, 5-[(3S,4R)- or (3R,4S)-3-amino-4-fluoropiperidin-1-yl]-N-[3-(difluoromethyl)-1-methyl-1H-pyrazol-4-yl]pyrazolo[1,5-a]pyrimidine-3-carboxamide trifluoroacetate] | 0.5 nM | – |
| Cn1cc(NC(=O)c2cnn3ccc(N4C[C@@H]5CN[C@@H](C5)C4)nc23)c(C(F)F)n1 (single isomer, unassigned) [Example 183, 5-[(1S,5S)- or (1R,5R)-3,6-diazabicyclo[3.2.1]oct-3-yl]-N-[3-(difluoromethyl)-1-methyl-1H-pyrazol-4-yl]pyrazolo[1,5-a]pyrimidine-3-carboxamide trifluoroacetate] | 6 nM | – |
| Cn1cc(NC(=O)c2cnn3ccc(N4C[C@H]5CN[C@H](C5)C4)nc23)c(C(F)F)n1 (single isomer, unassigned) [Example 184, 5-[(1S,5S)- or (1R,5R)-3,6-diazabicyclo[3.2.1]oct-3-yl]-N-[3-(difluoromethyl)-1-methyl-1H-pyrazol-4-yl]pyrazolo[1,5-a]pyrimidine-3-carboxamide trifluoroacetate] | 47 nM | – |
| Cn1cc(NC(=O)c2cnn3ccc(N4CCC(F)(F)[C@@H](N)C4)nc23)c(C(F)(F)F)n1 (single isomer, unassigned) [Example 188, 5-[(4R)- or (4S)-(3-amino-4,4-difluoropiperidin-1-yl)-N-[1-methyl-3-(trifluoromethyl)-1H-pyrazol-4-yl]pyrazolo[1,5-a]pyrimidine-3-carboxamide trifluoroacetate] | 60 nM | – |
| Cn1cc(NC(=O)c2cnn3ccc(N4CCC(F)(F)[C@@H](N)C4)nc23)c(C(F)F)n1 (single isomer, unassigned) [Example 189, 5-[(4R)- or (4S)-(3-amino-4,4-difluoropiperidin-1-yl)-N-[3-(difluoromethyl)-1-methyl-1H-pyrazol-4-yl]pyrazolo[1,5-a]pyrimidine-3-carboxamide trifluoroacetate] | 2 nM | – |
| Cn1cc(NC(=O)c2cnn3ccc(N4CCC(F)(F)[C@H](N)C4)nc23)c(C(F)(F)F)n1 (single isomer, unassigned) [Example 192, 5-[(4R)- or (4S)-(3-amino-4,4-difluoropiperidin-1-yl)-N-[1-methyl-3-(trifluoroemthyl)-1H-pyrazol-4-yl]pyrazolo[1,5-a]pyrimidine-3-carboxamide trifluoroacetate] | 23 nM | – |
| Cn1cc(NC(=O)c2cnn3ccc(N4CCC(F)(F)[C@H](N)C4)nc23)c(C(F)F)n1 (single isomer, unassigned) [Example 193, 5-[(4R)- or (4S)-(3-amino-4,4-difluoropiperidin-1-yl)-N-[3-(difluoromethyl)-1-methyl-1H-pyrazol-4-yl]pyrazolo[1,5-a]pyrimidine-3-carboxamide trifluoroacetate] | 2 nM | – |
| Cn1cc(NC(=O)c2cnn3ccc(N[C@@H]4CCCC(O)[C@@H]4N)nc23)c(C(F)(F)F)n1 (single isomer, unassigned) [Example 201, 5-{[(1R,2R)- or (1S,2S)-2-amino-3-hydroxycyclohexyl]amino}-N-[1-methyl-3-(trifluoromethyl)-1H-pyrazol-4-yl]pyrazolo[1,5-a]pyrimidine-3-carboxamide] | – | 4 nM |
| Cn1cc(NC(=O)c2cnn3ccc(N[C@H]4C(O)CCC[C@H]4N)nc23)c(C(F)(F)F)n1 (single isomer, unassigned) [Example 202, 5-{[(1R,2R)- or (1S,2S)-2-amino-6-hydroxycyclohexyl]amino}-N-[1-methyl-3-(trifluoromethyl)-1H-pyrazol-4-yl]pyrazolo[1,5-a]pyrimidine-3-carboxamide] | 4 nM | – |
| Cn1cc(NC(=O)c2cnn3ccc(N[C@@H]4CCCC(F)[C@@H]4N)nc23)c(C(F)(F)F)n1 (single isomer, unassigned) [Example 203, 5-{[(1R,2R)- or (1S,2S)-2-amino-3-fluorocyclohexyl]amino}-N-[1-methyl-3-(trifluoromethyl)-1H-pyrazol-4-yl]pyrazolo[1,5-a]pyrimidine-3-carboxamide] | 7 nM | – |
| Cn1cc(NC(=O)c2cnn3ccc(N[C@H]4CC(F)(F)CC[C@H]4N)nc23)c(C(F)F)n1 (single isomer, unassigned) [Example 208, 5-{[(1S,2R)- or (1R,2S)-2-amino-5,5-difluorocyclohexyl]amino}-N-[3-(difluoromethyl)-1-methyl-1H-pyrazol-4-yl]pyrazolo[1,5-a]pyrimidine-3-carboxamide] | – | 38 nM |
| Cn1cc(NC(=O)c2cnn3ccc(N[C@H]4CCC(F)(F)C[C@H]4N)nc23)c(C(F)F)n1 (single isomer, unassigned) [Example 209, 5-{[(1S,2R)- or (1R,2S)-2-amino-4,4-difluorocyclohexyl]amino}-N-[3-(difluoromethyl)-1-methyl-1H-pyrazol-4-yl]pyrazolo[1,5-a]pyrimidine-3-carboxamide] | 1 nM | – |
| Cn1cc(NC(=O)c2cnn3ccc(N[C@H]4CC(F)(F)CC[C@H]4N)nc23)c(C(F)F)n1 (single isomer, unassigned) [Example 210, 5-{[(1S,2R)- or (1R,2S)-2-amino-5,5-difluorocyclohexyl]amino}-N-[3-(difluoromethyl)-1-methyl-1H-pyrazol-4-yl]pyrazolo[1,5-a]pyrimidine-3-carboxamide] | 1 nM | – |
| Cn1cc(NC(=O)c2cnn3ccc(N[C@@H]4CCC(F)(F)C[C@@H]4N)nc23)c(C(F)F)n1 (single isomer, unassigned) [Example 211, 5-{[(1S,2R)- or (1R,2S)-2-amino-4,4-difluorocyclohexyl]amino}-N-[3-(difluoromethyl)-1-methyl-1H-pyrazol-4-yl]pyrazolo[1,5-a]pyrimidine-3-carboxamide] | 27 nM | – |
| Cn1cc(NC(=O)c2cnn3ccc(N[C@@H]4CNCC(F)(F)C4)nc23)c(C(F)(F)F)n1 (single isomer, unassigned) [Example 218, 5-{[(3S)- or (3R)-5,5-difluoropiperidin-3-yl]amino}-N-[1-methyl-3-(trifluoromethyl)-1H-pyrazol-4-yl]pyrazolo[1,5-a]pyrimidine-3-carboxamide] | 685 nM | – |
| Cn1cc(NC(=O)c2cnn3ccc(N[C@H]4CNCC(F)(F)C4)nc23)c(C(F)(F)F)n1 (single isomer, unassigned) [Example 219, 5-{[(3S)- or (3R)-5,5-difluoropiperidin-3-yl]amino}-N-[1-methyl-3-(trifluoromethyl)-1H-pyrazol-4-yl]pyrazolo[1,5-a]pyrimidine-3-carboxamide] | 7 nM | – |
| Cn1cc(NC(=O)c2cnn3ccc(N4[C@@H]5CCNC[C@H]4CC5)nc23)c(C(F)(F)F)n1 (single isomer, unassigned) [Example 221, 5-[(1R,6S)- or (1S,6R)-3,9-diazabicyclo[4.2.1]non-9-yl]-N-[1-methyl-3-(trifluoromethyl)-1H-pyrazol-4-yl]pyrazolo[1,5-a]pyrimidine-3-carboxamide trifluoroacetate] | 330 nM | – |
| Cn1cc(NC(=O)c2cnn3ccc(N4[C@H]5CCNC[C@@H]4CC5)nc23)c(C(F)(F)F)n1 (single isomer, unassigned) [Example 222, 5-[(1R,6S)- or (1S,6R)-3,9-diazabicyclo[4.2.1]non-9-yl]-N-[1-methyl-3-(trifluoromethyl)-1H-pyrazol-4-yl]pyrazolo[1,5-a]pyrimidine-3-carboxamide trifluoroacetate] | 168 nM | – |
| Cn1cc(NC(=O)c2cnn3ccc(N4C[C@@H]5CN[C@@H](C5)C4)nc23)c(C(F)(F)F)n1 (single isomer, unassigned) [Example 224, 5-[(1S,5S)- or (1R,5R)-3,6-diazabicyclo[3.2.1]oct-3-yl]-N-[1-methyl-3-(trifluoromethyl)-1H-pyrazol-4-yl]pyrazolo[1,5-a]pyrimidine-3-carboxamide] | 70 nM | – |
| Cn1cc(NC(=O)c2cnn3ccc(N4C[C@H]5CN[C@H](C5)C4)nc23)c(C(F)(F)F)n1 (single isomer, unassigned) [Example 225, 5-[(1S,5S)- or (1R,5R)-3,6-diazabicyclo[3.2.1]oct-3-yl]-N-[1-methyl-3-(trifluoromethyl)-1H-pyrazol-4-yl]pyrazolo[1,5-a]pyrimidine-3-carboxamide] | 310 nM | – |
| Cn1cc(NC(=O)c2cnn3ccc(N[C@@H]4CNCC(F)(F)C4)nc23)c(C(F)F)n1 (single isomer, unassigned) [Example 228, N-[3-(difluoromethyl)-1-methyl-1H-pyrazol-4-yl]-5-{[(3S)- or (3R)-5,5-difluoropiperidin-3-yl]amino}pyrazolo[1,5-a]pyrimidine-3-carboxamide] | 59 nM | – |
